Holding throughout (assay): NCI tumour cell line growth inhibition, 48 h
The subject of test [1] is COLO 205 colon.
Test [2] deals with RXF 393 renal.
Test [3] has as its system EKVX NSCLC.
For test [4], the system named is ACHN renal.
In test [5] the test system is SN12C renal.
The subject of test [6] is SK-OV-3 ovarian.
The subject of test [7] is SNB-75 CNS.
In test [8] the test system is NCI-H23 lung.
Test [9] deals with HT29 colon.

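Dose response: 5 concentrations. Exposure: 48 h. Format: 96-well plates. Endpoint: linear interpolation; highest concentration if not reached. Here, GI50 denotes the concentration required for 50% inhibition of growth. TGI: concentration producing complete growth inhibition.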

Data on 13 compounds can be found in PubChem BioAssay (NCI).

For the compound `CC(C)=O.O=C([O-])C(F)(F)F.O=C([O-])C(F)(F)F.O=C([O-])C(F)(F)F.O=C([O-])C(F)(F)F.[Rh+2].[Rh+2]`, the GI50 in test [1] was 96.1 µM; in test [2], above 100 µM; in [3], 47.2 µM; in test [4], 50.5 µM; in test [5], above 100 µM; in test [6], above 100 µM. Besides, the GI50 in test [7] was 58.6 µM; in test [8], 46.7 µM; in test [9], above 100 µM. Further, the TGI in test [1], in test [2], in test [3], in test [4], in test [5] and in [6] was above 100 µM throughout. The TGI in test [7], in [8] and in [9] was above 100 µM in each case.

In the case of `S=c1nc(C(c2ccccc2)c2ccccc2)[nH][nH]1`, the TGI in test [1], in test [2], in [3], in test [4], in [5] and in test [6] was above 100 µM throughout. For the same compound, the TGI in test [8] and in [9] was above 100 µM in each case.

For the compound `O=c1/c(=C/c2c(O)ccc3ccccc23)sc2nc3ccccc3n12`, the TGI in test [1], in test [2], in test [3], in test [4], in test [5] and in test [6] was above 100 µM each time. Further, the TGI in test [7], in test [8] and in [9] was above 100 µM each time.

Take `O=C1C=CC(=O)C2C1Cc1ccccc1C2c1ccccc1` (stereo not drawn): the TGI in [1] is 35.5 µM; in test [3] it was 72.9 µM; in [4] it was above 100 µM; in test [5], above 100 µM; in test [6] it was above 100 µM; in test [7], above 100 µM. The TGI in test [8] and in test [9] was above 100 µM each time.

Consider `COC1=CC(=O)C(Br)=CC1=O`, for which the TGI in test [1] is 31 µM; in [2], 32.3 µM; in test [3], 44.8 µM; in [5], 33.3 µM; in test [6] it was above 100 µM; in test [7] it was 29.1 µM. In addition, the TGI in [8] came to 40.8 µM; in test [9], 35.6 µM.

For `Cn1cnc([N+](=O)[O-])c1Sc1nnnn1C`, the TGI was 25.3 µM in test [1]; 40.8 µM in test [3]; 30.5 µM in test [4]; 32.1 µM in [5]; above 100 µM in [6]; 89.6 µM in test [7]. Besides, the TGI came out at 34.7 µM in [8] and 40.5 µM in [9].

Consider `CCC[CH2][Sn]([CH2]CCC)([CH2]CCC)[O]C(=O)C(OC(C)=O)c1ccccc1` (stereo not drawn), for which the GI50 in test [1] is 0.18 µM; in [2], 0.155 µM; in [3] it was 0.0528 µM; in test [4], 0.143 µM; in test [5] it was 0.144 µM; in test [6] it was 0.12 µM. For the same compound, the GI50 in test [7] was 0.134 µM; in test [8], 0.131 µM; in test [9], 0.127 µM. For the same compound, the TGI was 0.321 µM in [1]; 0.302 µM in [2]; 0.21 µM in [3]; 0.274 µM in test [4]; 0.275 µM in test [5]; 0.273 µM in [6]. In addition, the TGI came out at 0.424 µM in [7], 0.262 µM in test [8] and 0.26 µM in test [9].

With `O=c1nc(NC(c2ccccc2)(c2ccccc2)c2ccccc2)ccn1CCCl`, the TGI in test [1] amounted to 64.7 µM; in test [2], 30.8 µM; in test [3], 61 µM; in [4], 99 µM; in [5], 33 µM; in test [7], 41.8 µM. The figures for the TGI in [8] and in test [9] were 56 µM and 35 µM, respectively.

In the case of `C#CCN(N=O)C(=O)NCCCCC(NC(=O)OCc1ccccc1)C(=O)OCc1ccccc1` (stereo not drawn), the TGI in [2] is 81.7 µM; in [3], above 100 µM; in [4] it was above 100 µM; in test [5], above 100 µM; in test [6] it was above 100 µM; in test [7], above 100 µM. Further, the TGI in test [8] and in test [9] was above 100 µM throughout.

For `O=S(=O)(c1ccccc1)c1nccs1`, the TGI in [1], in test [3], in [4], in test [5], in [6] and in [7] was above 100 µM throughout. Moreover, the TGI in test [8] and in test [9] was above 100 µM each time.

Regarding `O=C1OC(c2ccccc2)(c2ccccc2)c2ccc3ccc(F)cc3c21`, the TGI in [1], in test [2], in test [3], in [4], in test [5] and in [6] was above 100 µM in each case. Moreover, the TGI in [7], in [8] and in [9] was above 100 µM each time.

Consider `Cc1ccc(NC(=O)C(=O)C(C(=O)c2ccc3ccccc3c2)C2OC(=O)c3ccccc32)c(C)c1` (stereo not drawn), for which the TGI in [1] amounted to 25.2 µM; in test [2] it was 22.5 µM; in test [3], 52 µM; in [4] it was 60.4 µM; in test [5] it was 53.4 µM; in [6], 60.4 µM. The TGI in test [7] is 47.3 µM; in test [8], 37.2 µM; in [9], 57.6 µM.

Turning to `CCO/C(CCn1[nH]c(=O)c(Cl)c(Cl)c1=O)=N\NC(=O)C(=O)NN`, the TGI in [1], in test [2], in test [3], in test [4], in test [5] and in test [6] was above 100 µM throughout. Further, the TGI in [7], in test [8] and in test [9] was above 100 µM each time.
